{"source": "patent US4161522A", "about": "“Method for blocking allergic responses” (The Regents of the University of California, priority 1978, dated 1979)", "key": {"[1]": {"system": "Prausnitz-Kustner (P-K) reaction", "test": "Prausnitz-Kustner (P-K) reaction blocking assay in human volunteers", "type": "in vivo", "conditions": "peptide approx. 6 μg/ml", "experimental": "The \"blocking\" activity of the polypeptides of the invention can be assayed by utilization of the classic Prausnitz-Kustner (P-K) reaction. In this classic method, a known allergic serum i.e., one that contains IgE specific for a known antigen or allergen is injected intradermally into a human volunteer. After waiting a period of time, e.g. 20 or more hours, the injected sites are then challenged with a prick or injection of a solution of an antigen that is specific for the IgE in the injected serum. Within the next 10 to 30 minutes a positive reaction is evidenced by the development of a wheal (and flare) at the injected site. The more extensive the diameter of the wheal the more intensive is the allergic reaction. That is, a more extensive wheal indicates a greater release of histamine into the tissues at the injected site. Conversely, the development of wheals of lesser diameter or the absence of any wheal at all indicates diminished allergic reaction and/or no allergic reaction at all. The P-K reaction as noted above is a classic test and is universally known and utilized by allergists.\nAll of these assays were performed using a single proven safe P-K donor serum that contains IgE specific for guinea pig allergens.\nPeptide solutions were either injected intradermally 1 to 24 hours prior to the P-K serum, or mixed with dilutions of the P-K serum for simultaneous injection. Initial tests were performed using the P-K serum at from 1:4 to 1:200 dilutions. Further studies were run at a fixed P-K dilution of 1:32 while the invention peptide solutions were varied to contain from about 1 mM to […] of the peptide being tested. Injected sites on the volunteers were challenged by prick-puncture of guinea pig BCA 1:40 w/v (purchased from Berkeley Biologicals, Inc.).\nHuman volunteers were chosen who had serum IgE levels below 100 U/ml. (242 ng/ml.) which levels have been previously shown to assure successful P-K reactivity. […] P-K and skin tests were performed on the back and/or forearm. […]"}, "[2]": {"system": "wheal and flare reaction", "test": "Displacement of IgE: direct skin challenge in an individual sensitive to guinea pig antigens", "type": "in vivo, human", "conditions": "single sensitive individual", "experimental": "It has also been determined that the active polypeptides of the invention appear to have the ability to \"displace\" IgE from mast cells as well as to prevent the binding of the IgE to the receptors. In a single test, an individual known to have extreme sensitivity to guinea pig antigens, that is a person with a high natural concentration of guinea-pig-antigen-sensitive IgE, was injected with polypeptides in accordance with the invention, and […] reaction to guinea pig antigen was noted.\nSpecifically, approximately 2 nM each of Asp-Ser-Asp-Pro-Arg and Ala-Asp-Ser-Asp-Pro-Arg were each intradermally injected into 3 marked sites. For comparison, TASME, as well as a control of the buffer diluent alone, was also each injected into 3 marked sites. At one, five and twenty-four hours subsequent to the polypeptide and control injection, one of each peptide and one diluent site were prick-puncture challenged with guinea pig antigen. […] However, at the twenty-four hour challenge, the wheal at the Asp-Ser-Asp-Pro-Arg site was approximately 45% smaller; while at the Ala-Asp-Ser-Asp-Pro-Arg site, the wheal was approximately 23% smaller."}, "[3]": {"system": "DBA white mice", "test": "Acute toxicity in mice", "type": "in vivo", "conditions": "for survival 24 to 72 hours post-injection: 1.4 ml total i.d./s.c./i.v./i.p.", "experimental": "Acute toxicity was determined as follows:\nDBA white mice (average weight 15 g.) were each injected with 1.4 ml. of a solution of the peptide in phosphate buffered saline, pH 7.4, as follows:\n0.1 ml. × 3 intradermally\n0.1 ml. × 3 subcutaneously\n0.6 ml. intraperitoneally\nThe peptides and concentrations used were as follows: […]"}, "[4]": {"system": "Wil-2WT human lymphoblastoid tissue culture cell line", "test": "Blocking of binding of I125-tagged IgE to Wil-2WT cells in vitro", "experimental": "In this regard, the 8 carbon chain acyl substituted peptide, octanoyl-Asp-Ser-Asp-Pro-Arg, as well as the […] acyl substituted peptide, acetoyl-Asp-Ser-Asp-Pro-Arg, were prepared by the method outlined in Example 10 above. These peptides were tested, in vitro, for their blocking ability with respect to the Wil-2WT human lymphoblastoid tissue culture cell line as follows.\nWil-2WT cells in culture medium were centrifuged at about 2000 RPM. The separated cells were mixed with minimal essential medium (MEM) and recentrifuged at 2000 RPM. The supernatent was decanted off completely and the residual cells were suspended in MEM+3% human serum albumin (HSA). The cell suspension was divided into suitable aliquots in reaction tubes. Blanks and control reaction tubes were also prepared. To various of the cell suspension tubes, were added known amount of Sha Myeloma E; Sha Myeloma E and octanoyl-Asp-Ser-Asp-Pro-Arg; or Sha Myeloma E and acetoyl-Asp-Ser-Asp-Pro-Arg. After mixing and standing at room temperature for approximately one hour, a known quantity of deaggregated IgE, tagged with radioactive iodine (I^125) was added to the tubes. After standing a short time, the capped tubes were mixed by slow inversion over an hour's time. […] The suspension was then counted on a gamma counter in order to determine the amount of tagged IgE bound to the Wil-2WT cells."}}, "note": "Ends that are not written are not given here. Peptide text beside a SMILES is read from it. * marks the point of attachment. Octanoyl = CCCCCCCC(=O)*", "data": [{"molecule": "tosyl-L-arginine sarcosine methylester [TASME]", "values": [{"measurement": "inhibition, individual high", "setting": "[1]; highest of six individuals, 0.1 ml per site", "result": 40, "unit": "%"}, {"measurement": "inhibition, individual low", "setting": "[1]; lowest of six individuals, 0.1 ml per site", "result": 0, "unit": "%"}, {"measurement": "average % inhibition (P-K wheal)", "setting": "[1]; six individuals, 0.1 ml intradermally, 0.05 ml diluted P-K serum containing 0.2 ng IgE, versus control wheal", "result": 24, "unit": "%"}, {"measurement": "inhibition of the wheal and flare reaction", "setting": "[2]; challenge at one and five hours after intradermal injection of approx. 2 nM", "result": "No inhibition"}, {"measurement": "wheal smaller than at buffered saline diluent site", "setting": "[2]; challenge at twenty-four hours after intradermal injection of approx. 2 nM", "result": "No reduction"}]}, {"molecule": "N=C(N)NCCC[C@H](NC(=O)[C@@H]1CCCN1C(=O)[C@H](CC(=O)O)NC(=O)[C@H](CO)NC(=O)[C@@H](N)CC(=O)O)C(=O)O", "note": "[Asp-Ser-Asp-Pro-Arg] (H-DSDPR-OH)", "values": [{"measurement": "survival 24 to 72 hours post-injection", "setting": "[3]; 10 μg/ml (1 mg/kg), 8 mice", "result": "all still living"}, {"measurement": "post-mortem gross and microscopic examination of tissues and organs", "setting": "[3]; 10 μg/ml (1 mg/kg), 8 mice", "result": "no local or systemic toxico-logical abnormalities"}, {"measurement": "survival 24 to 72 hours post-injection", "setting": "[3]; 13 μg/ml (1.3 mg/kg), 8 mice", "result": "all still living"}, {"measurement": "post-mortem gross and microscopic examination of tissues and organs", "setting": "[3]; 13 μg/ml (1.3 mg/kg), 8 mice", "result": "no local or systemic toxico-logical abnormalities"}]}, {"molecule": "CCCCCCCC(=O)N[C@@H](CC(=O)O)C(=O)N[C@@H](CO)C(=O)N[C@@H](CC(=O)O)C(=O)N1CCC[C@H]1C(=O)N[C@@H](CCCNC(=N)N)C(=O)O", "note": "[octanoyl-Asp-Ser-Asp-Pro-Arg] (Octanoyl-DSDPR-OH)", "values": [{"measurement": "blocking of the binding of IgE to Wil-2WT cells, highest seen", "setting": "[4]; as high as, in several procedures", "result": "≤ 25", "unit": "%"}]}, {"molecule": "C[C@H](N)C(=O)N[C@@H](CC(=O)O)C(=O)N[C@@H](CO)C(=O)N[C@@H](CC(=O)O)C(=O)N1CCC[C@H]1C(=O)N[C@@H](CCCNC(=N)N)C(=O)O", "note": "[Ala-Asp-Ser-Asp-Pro-Arg] (H-ADSDPR-OH)", "values": [{"measurement": "survival 24 to 72 hours post-injection", "setting": "[3]; 5 μg/ml (375 mg/kg), 6 mice", "result": "all still living"}, {"measurement": "post-mortem gross and microscopic examination of tissues and organs", "setting": "[3]; 5 μg/ml (375 mg/kg), 6 mice", "result": "no local or systemic toxico-logical abnormalities"}]}, {"molecule": "acetoyl-Asp-Ser-Asp-Pro-Arg (Ac-DSDPR)", "values": [{"measurement": "blocking ability on Wil-2WT cells (in words)", "setting": "[4]", "result": "did not exhibit any blocking ability whatsoever"}]}]}
